Active and inactive are the calls of the source.
How the values were obtained:
[1] = HIV-1 Vif–A3G interaction blockers – biochemical, TR-FRET, GST-Vif 1-94, biotin-A3G peptide, dose response retest, primary screen (AID 1117319); assay type: functional;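 note: TR-FRET signal of purified GST-Vif binding a biotinylated A3G peptide; inhibitors lower the FRET signal by blocking Vif and A3G binding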
BJ [2] = assay: cells; assay type: functional, cell-based; settings: Homo sapiens
BJ [3] = assay: BJ-TERT fibroblast viability loss – cell-based, RAS-independent, luminescence, dose response (AID 1933); assay type: functional; settings: Homo sapiens
[4] = reduced cellular PGC1a acetyl-lysine signal – cell-based, cherry-picked samples, dose response (AID 720514); assay type: functional;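 note: potency may reflect raised or lowered acetylation signal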
[5] = luciferase reporter signal suppression in cells – H4 neuroglioma cells, luminescence, dose response (AID 1990); assay type: functional, cell-based
[6] = alpha-synuclein stem-loop luciferase translation blockers – H4 neuroglioma cells, luminescence, confirmation (AID 1988); assay type: functional, cell-based
BJ [7] = assay: BJ-TERT-LT-ST fibroblast viability loss – cell-based, RAS-independent, luminescence, dose response (AID 1935); assay type: functional; settings: Homo sapiens;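 note: BJ fibroblasts immortalized with TERT plus LT and ST oncogenes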
[8] = Luminescence Cell-Based Dose Response HTS to Identify Inhibitors of 5'UTR Stem-Loop Driven Prion Protein mRNA Translation in H4 Neuroglioblastoma Cells. [Related pubchem assays: 1827 (Project Summary), 1813 (Primary HTS)]; assay type: functional
[9] = DRD fibroblast viability loss – cell-based, non-viral oncogenic, luminescence, dose response (AID 1934); assay type: functional; settings: Homo sapiens
[10] = molecular target: E3 ubiquitin-protein ligase Mdm2 (Homo sapiens, UniProt Q00987); assay: MDM2-luc reporter signal enhancers, multi-concentration potency testing, MDM2 ubiquitin-protein ligase inhibitor program, whole-cell format, luminescence detection, 384-well microplate (AID 1394); assay type: functional;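 note: MDM2 E3 inhibitors raise luminescence so EC50 is for signal enhancement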
[11] = A Cell Based Secondary Assay To Explore Cytotoxicity of Compounds that Sensitize Mycobacterium Tuberculosis to Beta-Lactam Antibiotics.; assay type: functional
Hexokinase HKDC1 = molecular target: T1, Hexokinase HKDC1 (Homo sapiens, UniProt Q2TB90); assay: inhibition of HKDC1 glucose phosphorylation – biochemical, W721R variant, dose response (AID 504729); assay type: functional
T1 sequence (Q2TB90 whole entry): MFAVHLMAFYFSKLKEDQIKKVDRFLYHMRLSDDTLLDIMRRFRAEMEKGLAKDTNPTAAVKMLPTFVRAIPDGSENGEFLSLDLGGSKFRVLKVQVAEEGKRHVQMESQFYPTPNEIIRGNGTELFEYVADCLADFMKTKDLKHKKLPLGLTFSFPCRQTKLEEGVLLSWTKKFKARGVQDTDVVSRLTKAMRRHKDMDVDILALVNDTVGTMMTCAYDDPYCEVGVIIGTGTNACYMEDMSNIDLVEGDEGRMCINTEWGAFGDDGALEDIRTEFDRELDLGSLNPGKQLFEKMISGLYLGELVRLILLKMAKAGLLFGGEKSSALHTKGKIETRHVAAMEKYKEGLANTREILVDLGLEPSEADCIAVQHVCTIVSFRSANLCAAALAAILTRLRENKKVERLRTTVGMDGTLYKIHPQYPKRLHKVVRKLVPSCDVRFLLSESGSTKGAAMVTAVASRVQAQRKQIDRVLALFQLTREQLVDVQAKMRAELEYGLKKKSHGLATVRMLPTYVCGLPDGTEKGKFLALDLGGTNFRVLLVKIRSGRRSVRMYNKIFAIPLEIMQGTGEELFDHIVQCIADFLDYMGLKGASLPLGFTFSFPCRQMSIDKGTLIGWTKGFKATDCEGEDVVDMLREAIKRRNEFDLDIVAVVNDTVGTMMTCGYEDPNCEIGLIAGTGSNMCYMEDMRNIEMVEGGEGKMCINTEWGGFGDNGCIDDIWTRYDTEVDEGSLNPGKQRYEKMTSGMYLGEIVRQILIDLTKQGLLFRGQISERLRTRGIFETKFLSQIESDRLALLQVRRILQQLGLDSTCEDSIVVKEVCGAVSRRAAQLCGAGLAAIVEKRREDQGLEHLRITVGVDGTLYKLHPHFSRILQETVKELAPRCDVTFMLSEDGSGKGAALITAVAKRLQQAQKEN

[12] = molecular target: T2, DNA repair protein RAD52 homolog (Homo sapiens, UniProt P43351); assay type: functional, biochemical
T2 sequence (P43351 whole entry): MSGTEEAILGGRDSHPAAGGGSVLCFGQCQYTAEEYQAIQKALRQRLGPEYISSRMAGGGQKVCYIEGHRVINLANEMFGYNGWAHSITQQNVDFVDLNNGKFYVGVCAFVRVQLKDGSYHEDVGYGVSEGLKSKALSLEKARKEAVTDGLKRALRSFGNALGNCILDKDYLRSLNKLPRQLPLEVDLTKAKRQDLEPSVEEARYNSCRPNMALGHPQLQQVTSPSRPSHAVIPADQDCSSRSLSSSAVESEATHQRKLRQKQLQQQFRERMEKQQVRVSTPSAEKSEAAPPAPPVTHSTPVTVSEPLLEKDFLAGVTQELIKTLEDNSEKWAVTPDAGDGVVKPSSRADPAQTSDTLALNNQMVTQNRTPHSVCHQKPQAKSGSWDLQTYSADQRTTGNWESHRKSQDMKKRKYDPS

[13] = Luminescence Cell-Based Dose Retest to Confirm Inhibitors of Cancer Stem Cells. [Related pubchem assays (depositor defined):AID2717, AID2721]; assay type: functional; settings: Homo sapiens
[14] = fluconazole-exposed Candida albicans growth modulators – fluorescence, retest, confirmation (AID 2467); assay type: functional, cell-based
Bcl-2-related protein A1 = molecular target: T3, Bcl-2-related protein A1 (Mus musculus, UniProt Q07440); assay type: functional;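 note: confirmatory dose–response counterscreen on Bfl-1, used to check hits from a UBC13 polyubiquitin inhibitor campaign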
T3 sequence (Q07440 whole entry): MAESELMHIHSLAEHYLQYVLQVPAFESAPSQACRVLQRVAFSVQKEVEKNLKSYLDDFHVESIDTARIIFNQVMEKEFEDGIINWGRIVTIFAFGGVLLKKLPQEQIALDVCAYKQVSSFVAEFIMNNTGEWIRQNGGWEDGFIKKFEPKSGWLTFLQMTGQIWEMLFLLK

[15] = molecular target: T4, Ubiquitin-conjugating enzyme E2 N (Homo sapiens, UniProt P61088); assay type: functional
T4 sequence (P61088 whole entry): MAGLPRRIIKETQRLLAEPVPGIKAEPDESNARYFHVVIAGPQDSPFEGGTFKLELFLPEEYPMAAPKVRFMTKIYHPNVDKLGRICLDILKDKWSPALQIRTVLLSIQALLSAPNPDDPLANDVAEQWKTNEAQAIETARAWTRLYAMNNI

[16] = molecular target: T4, Ubiquitin-conjugating enzyme E2 N; assay type: functional; remark: listed apart in the source
[17] = NIH-3T3 fibroblast cytotoxicity, dose response, cytotoxicity control, cell-based, fluorescence, Alamar Blue, secondary assay (AID 2327); assay type: functional;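 note: NIH-3T3 mouse fibroblasts cultured with fluconazole at 8 µg/mL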
Paired box protein Pax-8 = Paired box protein Pax-8 (Homo sapiens, UniProt Q06710); assay: PAX8 transcriptional activity inhibition in RMG-I – RMG-I cells, luciferase, cherry-pick, dose response (AID 687027); assay type: functional, cell-based;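 note: luciferase reporter driven by Pax8 target thyroperoxidase promoter measured by SteadyGlo luminescence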
[18] = general cell-killing toxicity readout – plate reader, dry powder samples, cytotoxicity control for PAX8 inhibitor project, dose response (AID 743021); assay type: functional, cell-based
[19] = Luminescence Cell-Based Dose Response HTS to Identify Activators of Luciferase Translation or Activity in H4 […] Cells. [Related pubchem assays: 1829 (Project Summary), 1814 (Primary HTS)]; assay type: functional
[20] = molecular target: Eukaryotic translation initiation factor 4E (Mus musculus, UniProt P63073); assay: blockers of eIF4G binding by eIF4E – biochemical, TR-FRET, dose response (AID 855); assay type: functional;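 note: potency for disrupting eIF4E binding to eIF4GI seen as loss of FRET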
[21] = Luminescence Cell-Based Dose Confirmation HTS to Identify Activators of 5'UTR Stem-Loop Driven Alpha-Synuclein mRNA Translation in H4 Neuroglioblastoma Cells. [Related pubchem assays: 1829 (Project Summary), 1814 (Primary HTS)]; assay type: functional
H4 = assay: Luminescence Cell-Based Dose Response HTS to Identify Activators of 5'UTR Stem-Loop Driven Prion Protein mRNA Translation in H4 Neuroglioblastoma Cells. [Related pubchem assays: 1829 (Project Summary), 1814 (Primary HTS)]; assay type: functional; settings: Homo sapiens
[22] = P. falciparum Dd2 growth inhibitors, dose response, SYBR Green, cherry-picked samples (AID 1159567); assay type: functional, cell-based
[23] = toxicity to human hepatoma HepG2 cells – cell-based, cherry-picked samples, cytotoxicity control, dose response (AID 1159577); assay type: functional
Large T antigen = Large T antigen (Simian virus 40, UniProt P03070); assay type: functional, Betapolyomavirus macacae;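 note: Confirmatory-stage PubChem screen for compounds that inhibit SV40 T antigen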
[24] = toxicity toward HepG2 liver cells – cell-based, plate reader, cherry-pick, antagonist series, cytotoxicity control, dose response (AID 743416); assay type: functional
[25] = blockers of bursicon-stimulated LGR2 cAMP reporter – cell-based, HEK293, CRE-luciferase reporter, cherry pick, set 2, dose response (AID 743343); assay type: functional;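 note: transfected cells were stimulated with diluted bursicon conditioned medium after compound addition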
[26] = viability loss in HEK293 cells – cell-based, plate reader, cherry-picked samples, cytotoxicity control, dose response (AID 743446); assay type: functional
[27] = blockade of melanocortin 4 receptor signaling – cell-based, plate reader, cherry pick, counter-screen for LGR2 antagonist project, dose response (AID 743444); assay type: functional;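 note: transfected HEK 293 cells stimulated with alpha-MSH peptide; potency of inhibitors of the alpha-MSH evoked signal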
[28] = A549 cell cytotoxicity, dose response, cytotoxicity control, plate reader, cherry-pick, antagonist series (AID 743412); assay type: functional, cell-based

Sequence of E3 ubiquitin-protein ligase Mdm2 (Q00987 whole entry): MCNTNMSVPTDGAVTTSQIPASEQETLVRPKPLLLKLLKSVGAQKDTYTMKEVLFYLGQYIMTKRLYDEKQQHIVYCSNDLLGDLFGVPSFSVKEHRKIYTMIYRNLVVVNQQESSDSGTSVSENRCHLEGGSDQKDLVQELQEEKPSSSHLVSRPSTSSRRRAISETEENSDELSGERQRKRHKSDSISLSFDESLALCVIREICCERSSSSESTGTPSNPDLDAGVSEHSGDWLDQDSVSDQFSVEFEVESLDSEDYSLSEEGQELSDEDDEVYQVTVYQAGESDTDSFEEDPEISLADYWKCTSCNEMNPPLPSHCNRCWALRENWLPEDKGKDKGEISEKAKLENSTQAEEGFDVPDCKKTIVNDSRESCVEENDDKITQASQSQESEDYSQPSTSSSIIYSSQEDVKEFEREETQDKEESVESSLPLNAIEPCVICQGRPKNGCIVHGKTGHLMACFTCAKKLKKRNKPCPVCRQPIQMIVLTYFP
Sequence of Large T antigen (P03070 whole entry): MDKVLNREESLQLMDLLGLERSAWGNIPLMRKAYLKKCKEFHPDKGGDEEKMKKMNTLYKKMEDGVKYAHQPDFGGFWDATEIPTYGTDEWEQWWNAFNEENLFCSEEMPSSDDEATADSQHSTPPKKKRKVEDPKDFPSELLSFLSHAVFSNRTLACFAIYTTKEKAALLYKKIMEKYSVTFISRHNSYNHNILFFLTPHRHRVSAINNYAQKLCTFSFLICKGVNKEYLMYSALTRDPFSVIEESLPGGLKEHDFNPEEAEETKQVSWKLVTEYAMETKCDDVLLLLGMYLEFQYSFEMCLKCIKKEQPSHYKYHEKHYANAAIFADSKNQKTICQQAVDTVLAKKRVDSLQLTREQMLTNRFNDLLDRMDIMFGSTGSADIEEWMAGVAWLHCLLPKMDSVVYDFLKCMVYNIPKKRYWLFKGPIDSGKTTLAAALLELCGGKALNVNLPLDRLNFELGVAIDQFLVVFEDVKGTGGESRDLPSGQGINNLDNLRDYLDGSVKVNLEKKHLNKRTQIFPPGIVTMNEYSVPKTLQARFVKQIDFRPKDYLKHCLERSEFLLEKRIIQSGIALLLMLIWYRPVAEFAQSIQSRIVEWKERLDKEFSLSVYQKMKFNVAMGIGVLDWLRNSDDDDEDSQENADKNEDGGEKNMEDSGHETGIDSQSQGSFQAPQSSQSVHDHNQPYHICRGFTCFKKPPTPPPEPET
Sequence of Paired box protein Pax-8 (Q06710 whole entry): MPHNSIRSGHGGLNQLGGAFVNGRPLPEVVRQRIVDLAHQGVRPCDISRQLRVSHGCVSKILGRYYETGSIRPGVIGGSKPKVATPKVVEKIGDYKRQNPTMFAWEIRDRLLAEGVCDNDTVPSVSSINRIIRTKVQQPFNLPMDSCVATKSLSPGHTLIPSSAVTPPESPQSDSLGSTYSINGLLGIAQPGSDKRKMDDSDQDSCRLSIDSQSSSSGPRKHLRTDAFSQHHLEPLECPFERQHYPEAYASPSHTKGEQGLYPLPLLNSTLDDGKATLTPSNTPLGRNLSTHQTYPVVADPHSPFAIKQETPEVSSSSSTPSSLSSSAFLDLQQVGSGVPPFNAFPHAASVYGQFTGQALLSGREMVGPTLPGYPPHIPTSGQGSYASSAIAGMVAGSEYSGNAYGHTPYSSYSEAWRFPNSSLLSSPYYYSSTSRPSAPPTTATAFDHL
Sequence of Eukaryotic translation initiation factor 4E (P63073 whole entry): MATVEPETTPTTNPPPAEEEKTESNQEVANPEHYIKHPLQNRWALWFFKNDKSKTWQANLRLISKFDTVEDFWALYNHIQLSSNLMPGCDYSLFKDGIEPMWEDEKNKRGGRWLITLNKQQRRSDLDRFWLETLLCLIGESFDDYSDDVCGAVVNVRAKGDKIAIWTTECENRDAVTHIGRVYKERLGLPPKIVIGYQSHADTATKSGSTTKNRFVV

SMILES: Cc1cc(/C=N/n2cnnc2)c(C)n1-c1cccc(Cl)c1
- IC50 [1]: > 100 µM (active)

SMILES: CCOc1ccc(N(CC(=O)Nc2ccccc2OC)S(=O)(=O)c2ccccc2)cc1
- EC50 (BJ [2]): 20.3 µM (active)
- EC50 (BJ [3]): 0.928 µM (active)
- AC50 [4]: 30.7 µM (active)
- EC50 [5]: 4.97 µM (active)
- EC50 [6]: 0.323 µM (active)
- EC50 (BJ [7]): 0.804 µM (active)
- EC50 [8]: 0.36 µM (active)
- EC50 [9]: 0.663 µM (active)

SMILES: COc1cccc(OC)c1C(=O)NNC(=O)c1cccc(COc2ccc3c(c2)CCC3)c1
- EC50 [10]: 0.0021 µM (active)

SMILES: Cc1ccc(CNC(=O)C2c3ccccc3C(=O)N3CCc4ccccc4C23)o1 (stereo unspecified)
- IC50 [1]: > 100 µM (active)

SMILES: COc1ccc(-c2csc(NC(CO)c3nc4ccccc4n3Cc3ccc(C)cc3)n2)cc1 (stereo unspecified)
- CC50 [11]: > 40 µM (active)

SMILES: CCCc1nc2oc3c(NCC4CCCO4)ncnc3c2c2c1COC(C)(C)C2 (stereo unspecified)
- IC50 (Hexokinase HKDC1): 33.2 µM (inactive)

SMILES: CN1CCN(CCCNC(=O)c2ccc(/C=C3\Oc4ccccc4N(Cc4ccc(Cl)cc4)C3=O)cc2)CC1
- AC50 [12]: 17.9 µM (active)
- AC50 [13]: 3.55 µM (active)
- EC50 [14]: > 38 µM (not active)
- IC50 (Bcl-2-related protein A1): > 20 µM (inactive)
- IC50 [15]: 12.4 µM (active)
- IC50 [16]: 1.35 µM (active)
- EC50 [17]: > 150 µM (inconclusive)
- AC50 (Paired box protein Pax-8): 16.9 µM (active)
- AC50 [18]: 0.974 µM (active)

SMILES: Cc1ccc(NC2c3ncccc3C(=O)N2c2ccccc2C)cc1C (stereo unspecified)
- EC50 [19]: 16.5 µM (active)
- IC50 [20]: 9.59 µM (active)
- EC50 [21]: 12 µM (active)
- EC50 (H4): 9.38 µM (active)
- IC50 (Hexokinase HKDC1): 11.6 µM (active)

SMILES: OC[C@@H]1[C@@H](c2ccc(C#CC3CCCC3)cc2)[C@H]2CN(CCC(F)(F)F)CCCCN12
- AC50 [4]: 12.9 µM (active)
- AC50 [22]: 1.02 µM (active)
- AC50 [23]: 8.47 µM (active)

SMILES: COc1cc([N+](=O)[O-])ccc1NC(=O)Oc1ccc(NC(C)=O)cc1
- IC50 (Large T antigen): 8.79 µM (active)
- IC50 [1]: > 100 µM (active)

SMILES: CN(C)c1nc(SCCOC(=O)COc2ccc(Cl)cc2Cl)nc(N(C)C)n1
- AC50 [4]: 26.1 µM (active)

SMILES: O=C(CN1CCN(c2ncccn2)CC1)NCc1ccccc1
- EC50 [10]: 34 µM (not active)

SMILES: O=C(O)c1ccc2c(c1)N(Cc1ccccc1F)C(=O)c1ccccc1[S+]2[O-] (stereo unspecified)
- EC50 [10]: 237 µM (not active)

SMILES: COc1ccc(CN2C(=O)c3cccnc3C2O)cc1 (stereo unspecified)
- IC50 (Hexokinase HKDC1): 21.5 µM (inactive)

SMILES: Cc1ccn2cc(-c3ccc(Br)cc3)nc2c1
- AC50 [24]: 49.2 µM (active)
- AC50 [25]: 3.6 µM (active)
- AC50 [26]: 42.6 µM (active)
- AC50 [27]: 2.76 µM (active)
- AC50 [28]: > 52 µM (inactive)
